Data as given in patent US12384749B2, “Onium salt of nitrogen-containing heteroaryl compound and pest control agent” (Nippon Soda Co., Ltd., priority 2019, dated 2025).

Tests used:
Type in all cases: in vivo
Mythimna separata = assay: Efficacy test against Mythimna separata (treated artificial feed); details: 1 μl of emulsion (I) (5% by mass active ingredient) mixed with 0.8 g artificial feed; second-instar larvae; 25° C.; after five days
Text: (§1) 5 parts by mass of a compound of the present invention, 93.6 parts by mass of dimethylformamide, and 1.4 parts by mass of polyoxyethylene alkyl aryl ether were mixed and dissolved to obtain an emulsion (1) containing 5% by mass of the active ingredient.
(§2) 93.6 parts by mass of dimethylformamide, and 1.4 parts by mass of polyoxyethylene alkyl aryl ether were mixed and dissolved to obtain an emulsion (II).
0.8 g of commercially-available artificial feed (Insect LFS, manufactured by Nosan Corporation) and 1 μl of the emulsion (I) were mixed well, and then 0.2 g of the mixture per treated area was packed into plastic test containers (each having a capacity of 1.4 ml) as test feeds.
Two second-instar larvae of Mythimna separata were left per treated area, and then the test containers were sealed with plastic covers. The test containers were placed in a thermostatic chamber at 25° C., and, after five days had passed therefrom, the mortality and the feed intake were measured. The test was repeated twice.
(§3) In addition, the test was conducted under the same conditions as described above, except that the emulsion (II) was used instead of the emulsion (I), and evaluated as a solvent control area.
The compounds A-2, A-3, A-4, A-9, A-10, A-11, A-15, and A-16 were subjected to an efficacy test against Mythimna separata. […] The mortality was calculated in accordance with the following equation. Mortality (%)=(Died insect number/Tested insect number)×100

Spodoptera litura = assay: Efficacy test against Spodoptera litura (cabbage leaf dip); details: foliar, 144 h, 125 ppm by mass, cabbage leaf immersed 30 seconds, second-instar larvae, 25° C., humidity 60%, after six days
Experimental: as §1
The emulsion (I) was diluted with water such that the amount of the compound of the present invention became 125 ppm by mass. A cabbage leaf was immersed in the diluted solution for 30 seconds. The cabbage leaf was air-dried and then put in a petri dish, followed by leaving five second-instar larvae of Spodoptera litura therein. The petri dish was placed in a thermostatic chamber at a temperature of 25° C. and a humidity of 60%. After six days had passed from leaving the larvae, life or death was assessed and the mortality was calculated. The test was repeated twice.

Helicoverpa armigera = assay: Efficacy test against Helicoverpa armigera (cabbage leaf dip); details: foliar, 144 h, 125 ppm by mass, cabbage leaf immersed 30 seconds, second-instar larvae, 25° C., humidity 60%, after six days
Nilaparvata lugens = assay: Efficacy test against Nilaparvata lugens (rice seedling dip); details: 240 h, 125 ppm by mass, rice seedling immersed 30 seconds, second-instar larvae, 25° C., humidity 65%, after ten days
Experimental: as §1
The emulsion (I) was diluted with water such that the amount of the compound of the present invention became 125 ppm by mass. A rice seedling was immersed in the diluted solution for 30 seconds, air-dried, and then placed in a plastic case, followed by leaving five second-instar larvae of Nilaparvata lugens therein. The plastic case was placed in a thermostatic chamber at a temperature of 25° C. and a humidity of 65%. After ten days had passed therefrom, life or death was assessed and the mortality was calculated. The test was repeated twice.

Tetranychus urticae = assay: Efficacy test against Tetranychus urticae (spray on kidney bean); details: 125 ppm by mass sprayed on kidney bean; female adults removed after three days; living number counted ten days after spraying; 25° C., humidity 65%
Text: as §1, §2
Five female adults of Tetranychus urticae were left on primary leaves of kidney bean planted in a 3-sun pot. The emulsion (I) was diluted with water such that the amount of the compound of the present invention became 125 ppm by mass. The diluted solution was sprayed on the kidney bean and evaluated as a treated area. The 3-sun pot was placed in a thermostatic chamber at a temperature of 25° C. and a humidity of 65%, and after three days had passed from spraying, the female adults of Tetranychus urticae were removed to leave only laid eggs remaining on the leaves. After ten days had passed from spraying, the number of living Tetranychus urticae was counted. The test was repeated twice.
as §3
The control ratio was calculated in accordance with the following equation. Control ratio (%)=100×[1−Nt/Nc] […]

Aphis gossypii = assay: Efficacy test against Aphis gossypii (spray on cucumber); details: 120 h, 125 ppm by mass sprayed on cucumber, first-instar larvae, 25° C., humidity 60%, after five days
Text: as §1
Cucumber was sown in a 3-sun pot. After ten days had passed from germination, a female adult of Aphis gossypii was left on the cucumber. On the next day, laid first-instar larvae were left, and the female adult was removed. The emulsion (I) was diluted with water such that the amount of the compound of the present invention became 125 ppm by mass. The diluted solution was sprayed on the cucumber. Then, the cucumber was placed in a thermostatic chamber at a temperature of 25° C. and a humidity of 60%. After five days had passed therefrom, life or death of Aphis gossypii was assessed and the mortality was calculated.

SMILES | mortality or feed intake relative to the feed intake at the solvent control area (Mythimna separata) | mortality at 125 ppm (Spodoptera litura) [%] | other results
O=C([N-][n+]1ccccn1)c1ccc(-c2ccc(OC(F)(F)C(F)F)cc2)nc1 [Compound A-2] | 100% mortality of Mythimna separata or 10% or less of the feed intake |  | 
O=C([N-][n+]1ccccn1)c1ccc(-c2ccc(OCC(F)(F)F)nc2)nc1 [Compound A-3] | 100% mortality of Mythimna separata or 10% or less of the feed intake |  | 
O=C([N-][n+]1cnn(CC(F)(F)F)c1)c1ccc(-c2ccc(OC(F)(F)C(F)F)cc2)c(Cl)c1 [Compound A-4] | 100% mortality of Mythimna separata or 10% or less of the feed intake | ≥ 80 | 
Cn1cc[n+]([N-]C(=O)c2ccc(-c3ccc(OC(F)(F)C(F)F)cc3)cc2)c1 [Compound A-9] | 100% mortality of Mythimna separata or 10% or less of the feed intake | ≥ 80 | mortality at 125 ppm (Helicoverpa armigera): ≥ 90%
O=C([N-][n+]1ccsc1)c1ccc(-c2ccc(OC(F)(F)C(F)F)cc2)cc1 [Compound A-10] | 100% mortality of Mythimna separata or 10% or less of the feed intake |  | 
O=C([N-][n+]1ccccn1)c1ccc(-c2ccc(OC(F)(F)C(F)F)cc2)cc1 [Compound A-11] | 100% mortality of Mythimna separata or 10% or less of the feed intake | ≥ 80 | mortality at 125 ppm (Nilaparvata lugens): ≥ 80%
Cn1cc[n+]([N-]C(=O)c2ccc(-c3ccc(OC(F)(F)F)cc3)cc2)c1 [Compound A-13] |  | ≥ 80 | 
O=C([N-][n+]1ccncc1)c1ccc(-c2ccc(OC(F)(F)F)cc2)cc1 [Compound A-15] | 100% mortality of Mythimna separata or 10% or less of the feed intake |  | 
O=C([N-][n+]1ccccn1)c1ccc(-c2ccc(OC(F)(F)F)cc2)cc1 [Compound A-16] | 100% mortality of Mythimna separata or 10% or less of the feed intake |  | 
O=C([N-][n+]1ccccn1)c1ccc(C(F)(F)F)cc1 [Compound A-18] |  |  | control ratio (Tetranychus urticae): ≥ 90%
O=C([N-][n+]1ccncc1)c1ccc(C(F)(F)F)cc1 [Compound A-19] |  |  | mortality at 125 ppm (Aphis gossypii): ≥ 80%
